The target in the test is URAT-1 transporter (Homo sapiens (Human), UniProt Q96S37). Briefly: URAT-1 inhibitor activity: [14C]-uric acid uptake in CHO-URAT1(L)GFP#8 (CHO#8) cells, scintillation proximity. In kind it is cell-based. Conditions: inhibition of [14C]-uric acid (30 nM) uptake into CHO#8 cells; compound 0 to 10 μM; 4 parameter logistic fit. In short, it runs like this: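 CHO cells stably expressing human URAT1 long isoform–eGFP fusion, pre-incubated 1 h in chloride-containing buffer pH 7.4, then given 30 nM [14C]-uric acid with compound (0–10 μM, 0.25% DMSO) in chloride-free gluconate buffer pH 7.4. Uptake measured by scintillation proximity on Cytostar plates.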

Where only a bound is given, the exact number is not on record here.

Sequence of URAT-1 transporter (Q96S37 other isoform, or with tags, fused parts or gaps): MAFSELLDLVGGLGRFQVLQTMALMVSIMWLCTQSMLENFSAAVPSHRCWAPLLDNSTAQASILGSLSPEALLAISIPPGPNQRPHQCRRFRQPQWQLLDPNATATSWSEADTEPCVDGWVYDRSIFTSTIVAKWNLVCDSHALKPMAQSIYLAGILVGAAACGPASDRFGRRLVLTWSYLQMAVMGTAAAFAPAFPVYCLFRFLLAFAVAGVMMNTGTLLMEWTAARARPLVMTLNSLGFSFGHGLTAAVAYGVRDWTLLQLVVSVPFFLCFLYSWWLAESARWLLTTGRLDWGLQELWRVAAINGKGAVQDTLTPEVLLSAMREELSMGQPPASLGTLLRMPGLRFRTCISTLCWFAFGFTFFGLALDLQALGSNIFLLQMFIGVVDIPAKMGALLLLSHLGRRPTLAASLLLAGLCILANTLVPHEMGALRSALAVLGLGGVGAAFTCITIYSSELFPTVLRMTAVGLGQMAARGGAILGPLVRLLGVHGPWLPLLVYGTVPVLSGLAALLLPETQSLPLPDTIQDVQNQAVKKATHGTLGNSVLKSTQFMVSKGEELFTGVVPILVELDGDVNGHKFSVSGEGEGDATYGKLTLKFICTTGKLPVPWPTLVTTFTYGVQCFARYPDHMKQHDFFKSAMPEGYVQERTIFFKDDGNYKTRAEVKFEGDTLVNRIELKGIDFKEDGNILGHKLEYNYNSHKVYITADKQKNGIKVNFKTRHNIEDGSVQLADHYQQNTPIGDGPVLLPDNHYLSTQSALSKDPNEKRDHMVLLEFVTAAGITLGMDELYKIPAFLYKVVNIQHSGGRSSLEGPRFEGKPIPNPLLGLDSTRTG

Broadly, the IC50 is the concentration that gives 50% inhibition. The low end stands for higher potency, the high end for lower potency. For the molecule `CC(C)(C)c1ccc(Oc2ccc(S(=O)(=O)Nc3ccc(F)cn3)cc2C#N)c(Cl)c1` [Example 127, 4-(4-tert-butyl-2-chlorophenoxy)-3-cyano-N-(5-fluoropyridin-2-yl)benzenesulfonamide], the IC50 is over 10000 nM.

The molecule `N#Cc1ccc(Oc2cc(F)c(S(=O)(=O)Nc3ncc(F)cn3)cc2Cl)cc1Cl` [compound 226] had an IC50 of 1780 nM.

Turning to `N#Cc1cc(S(=O)(=O)Nc2ccc(F)cn2)ccc1Oc1cncc(Cl)c1` [Example 202, 4-[(5-chloropyridin-3-yl)oxy]-3-cyano-N-(5-fluoropyridin-2-yl)benzenesulfonamide], the IC50 amounted to 37 nM.

In turn, `N#Cc1cc(S(=O)(=O)Nc2ccc(F)cn2)ccc1Oc1cc(F)c(F)cc1Cl` [Example 177, 4-(2-chloro-4,5-difluorophenoxy)-3-cyano-N-(5-fluoropyridin-2-yl)benzenesulfonamide] registered an IC50 of 246 nM.

Consider `N#Cc1cc(S(=O)(=O)Nc2ccc(F)cn2)ccc1Oc1c(Cl)cccc1C#N` [Example 73, 4-(2-chloro-6-cyanophenoxy)-3-cyano-N-(5-fluoropyridin-2-yl)benzenesulfonamide], for which the IC50 came out at 418 nM.

Consider `CCOc1ccc(Oc2ccc(S(=O)(=O)Nc3ccc(F)cn3)cc2C#N)cc1` [Example 153, 3-cyano-4-(4-ethoxyphenoxy)-N-(5-fluoropyridin-2-yl)benzenesulfonamide], for which the IC50 is over 10000 nM.

Take `CCOc1ccc(Oc2ccc(S(=O)(=O)Nc3ccc(F)cn3)cc2C#N)cc1Cl` [Example 116, 4-(3-chloro-4-ethoxyphenoxy)-3-cyano-N-(5-fluoropyridin-2-yl)benzenesulfonamide]: the IC50 was over 10000 nM.

The molecule `N#Cc1ccc(NS(=O)(=O)c2ccc(Oc3ccc(F)c(Cl)c3)c(C#N)c2)nc1` [compound 230] registered an IC50 of 62 nM.

As to `N#Cc1ccc(Oc2ccc(S(=O)(=O)Nc3ccccn3)cc2C#N)cc1Cl` [Example 89, 4-(3-chloro-4-cyanophenoxy)-3-cyano-N-(pyridin-2-yl)benzenesulfonamide], it took 105 nM to reach half-maximal inhibition (IC50).

As to `N#Cc1cc(Cl)cc(Oc2ccc(S(=O)(=O)Nc3ccc(F)cn3)cc2C#N)c1` [Example 62, 4-(3-chloro-5-cyanophenoxy)-3-cyano-N-(5-fluoropyridin-2-yl)benzenesulfonamide], inhibition was half-maximal at 27 nM (IC50).

`N#Cc1cc(S(=O)(=O)Nc2ccc(F)cn2)ccc1Oc1ccc(CO)c(Cl)c1` [Example 247, 4-[3-chloro-4-(hydroxymethyl)phenoxy]-3-cyano-N-(5-fluoropyridin-2-yl)benzenesulfonamide] yielded an IC50 of 1 nM.

`N#Cc1ccc(Cl)c(Oc2ccc(S(=O)(=O)Nc3ccc(F)cn3)cc2C#N)c1` [Example 63, 4-(2-chloro-5-cyanophenoxy)-3-cyano-N-(5-fluoropyridin-2-yl)benzenesulfonamide]: half-maximal inhibition (IC50) was put at 321 nM.

For `COc1ccc(C#N)cc1Oc1ccc(S(=O)(=O)Nc2ccc(F)cn2)cc1C#N` [Example 197, 3-cyano-4-(5-cyano-2-methoxyphenoxy)-N-(5-fluoropyridin-2-yl)benzenesulfonamide], the IC50 was over 10000 nM.

Molecule `N#Cc1cc(S(=O)(=O)Nc2ccc(F)cn2)ccc1Oc1ccc(F)c(F)c1Cl` [Example 167, 4-(2-chloro-3,4-difluorophenoxy)-3-cyano-N-(5-fluoropyridin-2-yl)benzenesulfonamide] had an IC50 of 50 nM.

Regarding `N#Cc1ccc(Oc2ccc(S(=O)(=O)Nc3ncccn3)cc2C#N)cc1Cl` [Example 90, 4-(3-chloro-4-cyanophenoxy)-3-cyano-N-(pyrimidin-2-yl)benzenesulfonamide], the IC50 is over 3580 nM.

In the case of `N#Cc1ccc(Oc2ccc(S(=O)(=O)Nc3ccc(F)cn3)cc2C#N)cn1` [Example 205, 3-cyano-4-[(6-cyanopyridin-3-yl)oxy]-N-(5-fluoropyridin-2-yl)benzenesulfonamide], the IC50 turned out to be 2630 nM.

`N#Cc1cc(S(=O)(=O)Nc2ccc(F)cn2)ccc1Oc1cc(F)cc(F)c1` [Example 11, 3-cyano-4-(3,5-difluorophenoxy)-N-(5-fluoropyridin-2-yl)benzenesulfonamide] returned an IC50 of 125 nM.

`N#Cc1cc(S(=O)(=O)Nc2ccc(F)cn2)ccc1Oc1cccc(Cl)c1C#N` [Example 179, 4-(3-chloro-2-cyanophenoxy)-3-cyano-N-(5-fluoropyridin-2-yl)benzenesulfonamide] yielded an IC50 of over 728 nM.

Molecule `COc1cc(Cl)ccc1Oc1ccc(S(=O)(=O)Nc2cccnn2)cc1Cl` [Example 81, 3-chloro-4-(4-chloro-2-methoxyphenoxy)-N-(pyridazin-3-yl)benzenesulfonamide] gave an IC50 of over 10000 nM.

Consider `N#Cc1c(Cl)cccc1Oc1ccc(S(=O)(=O)Nc2cccnc2)cc1` [Example 219, 4-(3-chloro-2-cyanophenoxy)-N-(pyridin-3-yl)benzenesulfonamide], for which the IC50 was over 10000 nM.

For `N#Cc1ccc(Oc2ccc(S(=O)(=O)Nc3ncc(F)cn3)cc2C#N)cc1Cl` [Example 91, 4-(3-chloro-4-cyanophenoxy)-3-cyano-N-(5-fluoropyrimidin-2-yl)benzenesulfonamide], inhibition was half-maximal at 1950 nM (IC50).

As to `Cc1cc(Oc2ccc(S(=O)(=O)Nc3ccc(F)cn3)cc2C#N)cc(C)c1C#N` [compound 235, 3-cyano-4-({4-cyano-3,5-bis[methyl-D3]-2,3-D2-phenyl}oxy)-N-(5-fluoropyridin-2-yl)benzenesulfonamide], it took 13 nM to reach half-maximal inhibition (IC50).

`CCOc1ccccc1Oc1ccc(S(=O)(=O)Nc2ccc(F)cn2)cc1C#N` [Example 151, 3-cyano-4-(2-ethoxyphenoxy)-N-(5-fluoropyridin-2-yl)benzenesulfonamide]: the IC50 was over 10000 nM.

The molecule `N#Cc1cc(S(=O)(=O)Nc2ccc(F)cn2)ccc1Oc1ccc(F)cc1F` [Example 7, 3-cyano-4-(2,4-difluorophenoxy)-N-(5-fluoropyridin-2-yl)benzenesulfonamide] returned an IC50 of 64 nM.

In turn, `CC(C)Oc1ccccc1Oc1ccc(S(=O)(=O)Nc2ccc(F)cn2)cc1C#N` [Example 207, 3-cyano-N-(5-fluoropyridin-2-yl)-4-[2-(propan-2-yloxy)phenoxy]benzenesulfonamide] yielded an IC50 of over 10000 nM.

As to `Cc1cc(Oc2ccc(S(=O)(=O)Nc3ccc(F)cn3)cc2C#N)ccc1C#N` [Example 61, 3-cyano-4-(4-cyano-3-methylphenoxy)-N-(5-fluoropyridin-2-yl)benzenesulfonamide], the IC50 came to 39 nM.

For `Cc1cc(Cl)c(Oc2ccc(S(=O)(=O)Nc3ccc(F)cn3)cc2C#N)cc1C` [Example 136, 4-(2-chloro-4,5-dimethylphenoxy)-3-cyano-N-(5-fluoropyridin-2-yl)benzenesulfonamide], the half-inhibitory concentration (IC50) was over 10000 nM.

`N#Cc1ccnc(NS(=O)(=O)c2ccc(Oc3ccc(F)c(Cl)c3)c(C#N)c2)c1` [compound 229]: the IC50 came out at 126 nM.

In turn, `COc1ccc(F)c(Oc2ccc(S(=O)(=O)Nc3ccc(F)cn3)cc2C#N)c1` [Example 166, 3-cyano-4-(2-fluoro-5-methoxyphenoxy)-N-(5-fluoropyridin-2-yl)benzenesulfonamide] gave an IC50 of 116 nM.

As to `N#Cc1cc(S(=O)(=O)Nc2ccc(F)cn2)ccc1Oc1cc(F)c(F)cc1F` [Example 130, 3-cyano-N-(5-fluoropyridin-2-yl)-4-(2,4,5-trifluorophenoxy)benzenesulfonamide], inhibition was half-maximal at 119 nM (IC50).

Values taken from patent US9067922B2, “Chemical compounds” (Pfizer Limited, priority 2013, dated 2015).
